From patent US20170304002A1, “ELECTROMANIPULATION OF PROTEINS USING NANOSECOND PULSED ELECTRIC FIELDS” (Old Dominion University, priority 2014, published 2017)

Tested on: Jurkat A3 cells
Test: nsPEF-induced dissipation of mitochondria membrane potential (ΔΨm), TMRE flow cytometry
Assay type: cell-based
Method: Wildtype Jurkat T-lymphocytes (clone A3) were obtained from ATCC (Manassas, Va.) and cultured in RPMI 1640 medium (ATCC) including about 10% fetal bovine serum (FBS) (Atlanta Biologist). N1-S1 HCC cells were obtained from ATCC and cultured in Iscove's Modified Delbecco's Medium including FBS. Both cell lines were maintained in media including about 1% L-glutamine and about 1% penicillin and streptomycin. Cells were treated in cuvettes in cell culture media with nsPEFs using pulse generators, such as, for example as described in Transient features in nanosecond pulsed electric fields differentially modulate mitochondria and viability, PLoS One 7 (2012).
Loss in ΔΨm was determined by staining cells with either 2 μM JC-1 (5′,6, 6′-tetrachloro-1,1′,3,3′-tetraethylbenzimidazole-carbocyanideiodine, Molecular Probes, Eugene, Oreg., USA), where JC-1 changes from red to green when ΔΨm decreases (data not shown) or with 200 […] TMRE (tetramethylrhodamine ethyl ester, Immunochemistry Technologies LLC, Bloomington, Minn.), where TMRE red emissions decrease when ΔΨm decreases. To determine effects of Ca^2+ on ΔΨm, cells were pre-incubated with or without 20 μM BAPTA-AM and/or 5 mM EGTA for about 30 min before nsPEF treatment. The ΔΨm was determined about 10 min after treatment with nsPEFs. The TMRE red fluorescence was determined (10,000 cells) on a Becton Dickinson FacsAria flow cytometer. Although data shown are with TMRE, near identical results were obtained with JC-1. […]
Jurkat cells (A3 clone) were pre-incubated with TMRE (200 nM) for 20 min. […] Cell were then analyzed by flow cytometry 10 min after treatment for red (TMRE, ΔΨm) fluorescent and expressed as percent cells showing fluorescence (Y-axis) at each electric field strength (X-axis). In the presence of 3 mM Ca^2+ (absence of EGTA) there was an electric field-dependent decrease in cells expressing a high ΔΨm as indicated by decreases in TMRE fluorescence. […] Statistical significance was determined by the paired Student's t-test (p<0.05; n=3). […]

Compound	effect on nsPEF-induced loss of ΔΨm (percent cells showing TMRE fluorescence) (30 min pre-incubation, EGTA 5 mM, BAPTA-AM 20 μM, ten 60 ns pulses, all electric fields up to 60 kV/cm, 10 min after treatment)	block of nsPEF-induced loss of ΔΨm at high electric field (electric field ≧40 kV/cm, EGTA 5 mM, BAPTA-AM 20 μM, ten 60 ns pulses)	chelation of Ca2+ influx from the extracellular environment by BAPTA-AM alone (BAPTA-AM 20 μM alone, data not shown)
O=C(O)CN(CCOCCOCCN(CC(=O)O)CC(=O)O)CC(=O)O [EGTA]	prevented losses in ΔΨm	neither EGTA nor EGTA/BAPTA completely blocked loss of ΔΨm	
CC(=O)OCOC(=O)CN(CC(=O)OCOC(C)=O)c1ccccc1OCCOc1ccccc1N(CC(=O)OCOC(C)=O)CC(=O)OCOC(C)=O [BAPTA-AM]			not sufficient to chelate influxes of Ca^2+ from the extracellular environment
